The results in this text go back to patent US20130338176A1, “METHODS OF PREVENTING AND TREATING HYPERLIPIDEMIA OR ATHEROSCLEROSIS” (The Trustees of Columbia University in the City of New York, priority 2010, published 2013).

Test [1] has as its system ApoE−/− mice. Description: Plasma serotonin determination (ELISA), ApoE−/− mice. The test is classed as in vivo. To be noted: high cholesterol diet 12 weeks, 200 mg per kg per day orally, vs placebo. An excerpt:
(§1) To study the effect of gut-derived serum or plasma serotonin on the development of atherosclerosis, two well-studied genetic mouse models of hypercholesterolemia and atherosclerosis were used, namely mice with deletions in both copies of the apoliprotein E gene (referred to as ApoE−/− mice) and mice carrying deletions of both copies of the low density lipoprotein receptor gene (LDLR−/− mice). These mice have elevated blood cholesterol levels due to a defect in hepatic clearance of cholesterol containing very low density lipoproteins and low density lipoproteins (Ishibashi et al., 1993, J. Clin. Invest. 92:883-893; Plump et al., 1992, Cell 71:343-353). To accelerate the process of atherosclerotic plaque development, the mice were placed on a high cholesterol rodent diet at 5 weeks of age and fed this diet for 12 weeks. During this period, the mice were orally administrated placebo (diluent) or LP-533401, an inhibitor of tryptophan hydroxylase 1 (TPH1), the key enzyme required for serum or plasma serotonin synthesis, at the dose of 200 mg per kg of body weight per day (FIG. 1).
Serotonin content in the plasma was determined using Serotonin research ELISA (IBL, Cat. No. IB89540) according to the manufacturer's instructions.
On the technique in general: An ELISA detects its analyte on a solid surface through an enzyme-linked reagent.

The test system of another test is wild type mice. Description: Plasma cholesterol, triglyceride, glycerol and free fatty acid levels, wild type mice. The test is classed as in vivo. To be noted: vs placebo. Here is the method:
(§2) Cholesterol, triglycerides, glycerol, and free fatty acids were measured in plasma from 4 hours fasted mice using commercially available kits (Cholesterol E, Wako, Cat. No. 439-17501; Triglycerides determination kit, Sigma, Cat. No. TR0100-1KT (measures both triglycerides and glycerol), HR Series NEFA-HR, Wako, Cat. No. 999-34691) according to the manufacturer's instructions.

Test [2] relates to ApoE−/− mice. Description: Plasma cholesterol, triglyceride, glycerol and free fatty acid levels, ApoE−/− mice. The format is in vivo.
Source text: as §1, §2

The test system of test [3] is LDLR−/− mice. Description: Plasma cholesterol and triglyceride levels, LDLR−/− mice. Particulars: high cholesterol diet, vs placebo. The test is classed as in vivo.
Source text: as §1, with “During this period, the mice were orally administrated placebo (diluent) or LP-533401, an inhibitor of tryptophan hydroxylase 1 (TPH1), the key enzyme required for serum or plasma serotonin synthesis, at the dose of 200 mg per kg of body weight per day (FIG. 1).” left out
as §2

Test [4] deals with LDLR−/− mice. The experiment in a line: Atherosclerotic plaque area in Oil Red O stained aortas, LDLR−/− mice. The format is in vivo. Particulars: vs placebo.
Source text: as §1, with “During this period, the mice were orally administrated placebo (diluent) or LP-533401, an inhibitor of tryptophan hydroxylase 1 (TPH1), the key enzyme required for serum or plasma serotonin synthesis, at the dose of 200 mg per kg of body weight per day (FIG. 1).” left out
(§3) After 12 weeks of high cholesterol diet and administration of therapeutic agent or placebo, the mice were sacrificed to determine the amount of atheromas in their aortas. […] A quantitative computer-assisted image analysis (ImageJ) of the plaque staining areas was performed and correlated with the whole vessel wall areas.

Test [5] deals with ApoE−/− mice. Description: Atherosclerotic plaque area in Oil Red O stained aortas, ApoE−/− mice. The format is in vivo. Particulars: vs placebo.
Source text: as §1, with “During this period, the mice were orally administrated placebo (diluent) or LP-533401, an inhibitor of tryptophan hydroxylase 1 (TPH1), the key enzyme required for serum or plasma serotonin synthesis, at the dose of 200 mg per kg of body weight per day (FIG. 1).” left out
as §3

The test system of test [6] is adipose tissue explants. Description: Adipose tissue explants, mRNA expression of lipolysis genes (Real Time PCR). The format is cell-based, mice. Particulars: 25 μM serotonin, vs untreated control. Here is the method: (§4) Epigonadal fat pads were isolated from 8 week old wild type male mice, cut into 20 mg fragments, and placed in culture medium (DMEM low glucose, 0.1% bovine serum albumin, both from Invitrogen) in a cell incubator (37° C., 5% CO2 atmosphere) for 2 h. After this time, the fat explants were stimulated for 2 h with different concentrations of serotonin. Concentrations of free fatty acids (FFA) and glycerol were measured in the medium. For gene expression analysis, tissue was homogenized in TRIZOL® reagent (Sigma) and RNA was isolated according to the manufacturer's instructions. The RNA was used as a template for cDNA synthesis (cDNA synthesis kit, Invitrogen). The relative gene expression was quantified using Real Time PCR.

Test [7] relates to adipose tissue explants. The experiment in a line: Adipose tissue explants, FFA and glycerol release on stimulation with serotonin. The format is cell-based, mice. Particulars: white adipose tissue explants, ex vivo. The procedure: as §4
The mark [8] stands for this setting: ApoE−/− mice fed high cholesterol diet, vs placebo.
[9] abbreviates: ApoE−/− mice fed normal rodent chow diet, vs placebo.
[10] abbreviates: 2 h stimulation, all tested concentrations.

Consider `Nc1nc(OC(c2ccc(-c3cccc(F)c3)cc2)C(F)(F)F)cc(-c2ccc(C[C@H](N)C(=O)O)cc2)n1` (stereo partly drawn) [LP-533401], for which the “reduction of plasma serotonin levels” value with ApoE−/− mice [1] came out at 80%. Also, the FFA levels entry in the test with wild type mice, in the test on ApoE−/− mice [2] (setting [8]) and in the test with ApoE−/− mice [2] (setting [9]) was “reduced” throughout. Besides, the cholesterol levels entry with wild type mice is “did not alter cholesterol levels”. For the same compound, the glycerol levels result with wild type mice, in the test on ApoE−/− mice [2] (setting [8]) and in the test with ApoE−/− mice [2] (setting [9]) was “reduced” each time. Also, the triglyceride levels result with wild type mice was “lowers triglyceride levels”; in the test on ApoE−/− mice [2] (ApoE−/− mice, high cholesterol diet, vs placebo), “does not alter triglyceride levels”; with LDLR−/− mice [3], “does not alter triglyceride levels”. In the test with ApoE−/− mice [2] (ApoE−/− mice, high cholesterol diet, 200 mg per kg per day orally, 4 hours fasted), the “cholesterol levels in plasma, reduced in comparison to placebo” value came to 30%. Moreover, the “reduction in the amount of atherosclerotic plaques” value in the test on LDLR−/− mice [4] (high cholesterol diet 12 weeks, 200 mg per kg per day orally) turned out to be 40%. The “atheroma formation” value is “lowers atheroma formation” in the test on LDLR−/− mice [4] (FIG. 3) and “decreased atheroma formation” in the test with ApoE−/− mice [5] (FIG. 2). For the same compound, the “reduction of the area occupied by atherosclerotic plaques” value in the test on ApoE−/− mice [5] (high cholesterol diet 12 weeks, 200 mg per kg of body weight per day orally) is listed as 44%.
Consider `NCCc1c[nH]c2ccc(O)cc12` [serotonin, 5-hydroxytryptamine], for which, in the test with adipose tissue explants [6], the “expression levels of CGI58” value is reported as “does not influence the expression levels”, the “expression levels of GOS2” value was “does not influence the expression levels”, the “expression levels of perilipin” value was “does not influence the expression levels” and the “expression of adipose triglyceride lipase (ATGL)” value is given as “does not affect”. Also, the “expression of hormone sensitive lipase (HSL)” value with adipose tissue explants [6] was “promotes the expression”. Besides, the “concentration giving the highest stimulation of FFA and glycerol secretion” value in the test with adipose tissue explants [7] is 25 µM. In the test with adipose tissue explants [7] (setting [10]), the “secretion of FFA from the adipose tissue” value is listed as “stimulated secretion” and the “secretion of glycerol from the adipose tissue” value is “stimulated secretion”.
